The source of these data is patent US11974551B2, “L-serine compositions, methods and uses for treating neurodegenerative diseases and disorders” (priority 2011, dated 2024).

Data set [1] relates to zebrafish. The data set is described as follows: Zebrafish motor neuron development (fluorescent microscopy). The following applies: eggs injected with L-BMAA, 30 hours; motor neuron length vs control P<0.0001. Format: in vivo, zebrafish (Dario rerio). As to the method:
(§1) BMAA was directly injected through the chorion into the yolk, allowing it to directly compete with L-serine for incorporation into newly synthesized proteins in the developing fish. BMAA (100 mg/ml in water) or water were delivered by an automated Picospritzer pump set to deliver 5 nL per injection into the yolk ([…]) of zebrafish immediately after being fertilized. Fish were left to develop for 30 hours in standard conditions.
(§2) Surviving fish were reared in an aquarium equipped with biological filtration and temp control set at 28° C. for 3 months. BMAA-treated and control fish from the same parents were reared in the same tanks, then separated based on fluorescent tag prior to swimming assessment. After 3 months all healthy adult fish with no deformations or abnormalities were examined. Critical swimming speed was determined, defined as the maximum swimming velocity that can be sustained for a set period in a water tunnel. Water was pumped from a reservoir (EcoTech Marine MP10 VorTech® Propeller Pump with EcoSmart Driver) through 50 mm diameter tubing. […] The difference in total motor neuron length was quantitated by measuring the first ten motor neuron projections marked before the end of the yolk extension (Paquet D. et al., J. Clin. Invest. 119:1382 (2009)). […] Data was collated in GraphPad Prism (version 6 for OSX) and statistical significance calculated using a Student's T-test. […]

Data set [2] has as its system MRC-5 cells. The data set is described as follows: Acridine orange/ethidium bromide dual-staining of cells. The following applies: 500 μM BMAA, 23 hours. The data set is classed as cell-based, human. How it is done:
MRC-5 cells were incubated in the presence and absence of 500 μM BMAA for 23 hours. After removing the medium, the cells were rinsed once with warm PBS and incubated in a solution of AO/EB then visualized using fluorescent microscopy as described previously (Tang, et al., Phytother Res 25, 417-423 (2010)).

In data set [3] the test system is MRC-5 cells. The data set is described as follows: Lactate dehydrogenase (LDH) release assay. Particulars: BMAA-treated cells. The data set is classed as cell-based, human. As to the method: (§3) Lactate dehydrogenase release from cells was determined as described previously (Tang, et al., Phytother Res 25, 417-423 (2010)).
The subject of data set [4] is SH-SY5Y cells. Put plainly: Lactate dehydrogenase (LDH) release assay. Particulars: BMAA-treated cells. Format: cell-based, human. As to the method: as §3
A short description of data set [5]: Radio-labeled BMAA brain entry and insertion into neuroproteins. The data set is classed as in vivo. Particulars: tritiated and 14C-labeled BMAA, rats. From the text:
Studies testing to determine if L-Serine blocks the misincorporation of radio-tagged BMAA into rodent brains are undertaken.

In data set [6] the test system is zebrafish. Put plainly: Zebrafish swimming performance (critical swimming speed, time to fail). Format: in vivo, zebrafish (Dario rerio). Particulars: single yolk injection of BMAA, fish reared 3 months, compared to control fish, p<0.001. How it is done:
as §1, §2

The test system of another data set is Drosophila fruit flies. Put plainly: Fruit fly feeding: mortality after three days. Particulars: media with 25 mM BMAA, after three days. Format: in vivo, Drosophila melanogaster. As to the method: Preliminary studies show the ability of L-Serine to prevent misincorporation of BMAA into proteins. In a series of feeding experiments, Drosophila fruit flies were fed four different types of media: 1) standard fruit fly media with 0 mM BMAA (control), 2) media enriched with 25 mM L-Serine, 3) media with 25 mM BMAA added, and 4) media with both 25 mM BMAA and 25 mM L-Serine added for three days of feeding. Misincorporation of BMAA into proteins was then analyzed using triple quadrupole LC/MS/MS and Orbital Trap LC/MS/MS.
Equally interesting is the analysis of the protective value of L-Serine on Drosophila dosed with BMAA. Fruit flies fed with BMAA enriched media (third set of blocks) suffered a 40% mortality after three days, while flies fed with Serine plus BMAA (fourth set of blocks) had no mortality (FIG. 8). These flies were rescued by L-Serine.

For data set [7], the system named is zebrafish. The data set is described as follows: Zebrafish egg yolk injection: survival. Particulars: BMAA 100 mg/ml in water, 5 nL injected into yolk after fertilization, 30 hours; control 91%. The data set is classed as in vivo, zebrafish (Dario rerio). As to the method: as §1
The subject of data set [8] is SH-SY5Y cells. The data set is described as follows: Annexin V binding (apoptosis) by flow cytometry. Format: cell-based, human. As to the method: Late-stage apoptosis or necrosis was measured by simultaneous staining with propidium iodide and Annexin V using the BD Pharmingen™ Annexin V—FITC apoptosis detection kit and flow cytometry performed as described previously (Dunlop, et al., Biochem J 435, 207-216 (2010)).
(In general: A flow cytometer gives signals particle by particle.)

Data set [9] relates to MRC-5 cells. The data set is described as follows: Autofluorescence imaging of cells. Particulars: BMAA 300 μM, 96 hours. Format: cell-based, human. How it is done:
MRC-5 cells were incubated in DMEM supplemented with 300 μM BMAA in the presence or absence of 300 μM L-serine for 96 hours with daily medium changes. Cellular autofluorescence was visualized using an inverted fluorescent microscope (Olympus IX71) as described previously (Dunlop, et al., Biochem J 410, 131-140 (2008)).

Data set [10] deals with MRC-5 cells. Put plainly: Incorporation of 3H-BMAA radiolabel into cell proteins (TCA precipitation, liquid scintillation counting). The data set is classed as cell-based, human. The following applies: 16 hours. How it is done:
MRC-5 cells were incubated with ^3H-BMAA (31.25 nM) in HBSS containing 10% FCS. After 2, 4, and 16 hours, cells were washed three times in phosphate buffered saline and lysed by freeze-thawing in Triton X-100. The protein concentration in the lysate was determined using the bicinchoninic acid assay (BCA) (Smith, et al., Anal Biochem 150, 76-85 (1985)) (and radiolabel in the cell lysate quantified by liquid scintillation counting (LSC). Cell proteins were then isolated by trichloroacetic acid (TCA) (5%) precipitation washed three times in TCA (5%) and dissolved in formic acid.
To determine if incorporation of radiolabel into proteins was protein synthesis dependent MRC-5, SH-SY5Y and HUVEC cells were incubated with ^3H-BMAA (31.25 nM) with or without CHX 2 μg/ml for 16 hours. The amount of radiolabel present in cell proteins in the CHM-treated cultures was expressed relative to that of control cultures, which was set at 100%. Parallel cultures of MRC-5 cells were incubated with ^3H-leucine (41 nM) with or without CHX 2 μg/ml under identical culture conditions and processed as before.
To examine the ability of individual amino acids to reduce incorporation or radiolabel into proteins, MRC-5 cells were incubated with ^3H-BMAA (31.25 nM) for 16 hours in the presence of individual amino acids (250 μM) and the radiolabel present in the cell proteins assessed as before. All of the 20 protein amino acids (L-isomers) were examined individually in triplicate cell cultures. […] Incorporation of radiolabel was determined relative to cells incubated in medium containing no serine. MRC-5 cells were then incubated with ^3H-BMAA (31.25 nM) for 16 hours in HBSS alone, HBSS containing all 20 protein amino acids (400 μM) or 19 protein amino acids except L-serine and the amount of radiolabel in cell protein assessed as before.

The test system of a further data set is HUVEC. The data set is described as follows: Incorporation of 3H-BMAA radiolabel into cell proteins with or without CHX. The data set is classed as cell-based, human. Particulars: 3H-BMAA 31.25 nM, CHX 2 μg/ml, 16 hours. As to the method:
(§4) MRC-5 cells, a human lung fibroblast cell line (passage number 14-19), and SH-SY5Y cells, a human neuroblastoma cell-line (passage number 30-32), were maintained in DMEM, or DMEM/Hams F12 respectively containing 10% fetal bovine serum (FBS), 4 mM L-glutamine, 100 U/mL penicillin, and 100 μg/mL streptomycin at 37° C. in a humidified atmosphere of 5% CO2 and 95% air. Human umbilical vein endothelial cells (HUVEC) were harvested enzymatically with type II collagenase (Sigma-Aldrich) under sterile conditions as described by Minter (Minter, et al., Thromb Haemost 67, 718-723 (1992)) and established as primary cell cultures in M199 (Trace Biosciences, Sydney, Australia) containing 20% FBS, 4 mM L-glutamine, 0.5% endothelial cell growth promoter, 100 U/mL penicillin, and 100 μg/mL streptomycin. All media were prepared with endotoxin-free water (Baxter) and filtered with Zetapor filters (Cuno Life Sciences Division). Cells were seeded at 3×10^5 cells per well in 6 well plates and allowed to adhere overnight (16 hours) before treatment.
(§5) To determine if incorporation of radiolabel into proteins was protein synthesis dependent MRC-5, SH-SY5Y and HUVEC cells were incubated with ^3H-BMAA (31.25 nM) with or without CHX 2 μg/ml for 16 hours. The amount of radiolabel present in cell proteins in the CHM-treated cultures was expressed relative to that of control cultures, which was set at 100%. […]

Data set [11] has as its system SH-SY5Y cells. Described as above. Format: cell-based, human. The following applies: 3H-BMAA 31.25 nM, CHX 2 μg/ml, 16 hours. As to the method:
as §4, §5

Data set [12] deals with MRC-5 cells. Put plainly: Protein-bound non-labeled BMAA in hydrolysed cell proteins by triple quadrupole LC/MS/MS. Format: cell-based, human. The following applies: BMAA 250-1000 μM with L-serine 250-1000 μM, or CHX. How it is done: After incubation with ^3H-BMAA or cold BMAA, cells were washed three times with PBS, lysed by freeze thawing in Triton-X-100 (0.1%) and cell proteins precipitated in TCA (5%). Protein pellets were washed three times with TCA (5%) and hydrolysed in boiling 6 M HCl at 110° C. for 16 hours as previously described (Mondo, et al., Mar Drugs 10, 509-520 (2012)). Protein pellets were freeze-dried and reconstituted in 20 mM HCl. Particulates were removed by centrifugation through […] membranes and the hydrolysate derivatized in AccQ·Tag (Waters Corporation, Australia). Amino acids were separated on a Waters C-18 column using a method and gradient as described previously (Mondo, et al., Mar Drugs 10, 509-520 (2012)). For recovery of radiolabel in hydrolysed samples, fractions were collected manually every minute for 40 minutes, diluted into 5 ml scintillant (Ultima Gold™ scintillant, Perkin Elmer) and disintegrations per minute (DPM) determined by LSC.
To further confirm that BMAA was present in cell proteins and incorporation was inhibited by L-serine, MRC-5 cells were incubated with a range of concentrations of BMAA (250-1000 μM) or BMAA with L-serine (250-1000 μM) and hydrolysed cell proteins were analyzed by tandem mass spectroscopy on a triple quadrupole LC/MS/MS. […]

For data set [13] the following is noted: mice, single injection (Karlsson et al. 2009); cited from earlier work.

“Also recorded” adds a separate entry of the source.

By mortality is commonly meant the percentage killed. In the case of `CNC[C@H](N)C(=O)O` [BMAA, β-methylamino-L-alanine], the motor neuron development result in the data set on zebrafish [1] is recorded as “truncated neurons”. Also, the “morphological changes and pale cells indicative of apoptosis” value with MRC-5 cells [2] is “increased number; also recorded: morphological changes”. Moreover, in the data set with MRC-5 cells [3], the “necrosis, LDH release” value is reported as “no significant changes”. Besides, in the data set on SH-SY5Y cells [4], the “necrosis, LDH release” value is “no significant changes”. In data set [5], the “crossing of the blood-brain barrier” value was “rapidly cross the blood-brain barrier” and the insertion into neuroproteins entry was “inserted into neuroproteins”. Further, the “swimming performance, time to fail” value with zebrafish [6] was “significant impairment; also recorded: impairs zebrafish swimming performance”. The mortality in the data set on Drosophila fruit flies worked out at 40%. In the data set with zebrafish [7], the “zebrafish viability (survival)” value stood at 74%. In addition, the “Annexin V staining (apoptosis)” value with SH-SY5Y cells [8] (500 μM BMAA alone) was “increased staining; also recorded: significant increase”. Besides, the “formation of autofluorescent bodies” value with MRC-5 cells [9] is “autofluorescent bodies were evident; also recorded: Autofluorescence was observed”.
Regarding `C[C@@H]1C[C@@H]([C@H](O)CC2CC(=O)NC(=O)C2)C(=O)[C@@H](C)C1` [CHX, cycloheximide], in the data set on MRC-5 cells [10] (3H-BMAA 31.25 nM, CHX 2 μg/ml, relative to no CHX), the “effect on amount of 3H-BMAA radiolabel in the protein fraction” value was “significantly reduced; also recorded: inhibition of incorporation of radiolabel into cell protein”. Further, the “inhibition of incorporation of 3H-leucine into proteins, compared with 3H-BMAA” value with MRC-5 cells [10] (3H-leucine 41 nM, CHX 2 μg/ml) was “to the same extent”. Moreover, the “effect on protein association of 3H-BMAA” value in the data set with HUVEC and in the data set with SH-SY5Y cells [11] was “inhibited” throughout. The “effect on incorporation of non-labeled BMAA into cell proteins” value with MRC-5 cells [12] is given as “inhibited”. Also, the “effect on BMAA-induced Annexin V binding / apoptosis” value in the data set on SH-SY5Y cells [8] (500 μM BMAA, co-incubation with CHX 2 μg/mL or L-serine 50 μM) was “abrogated; also recorded: significantly reduced”.
For `N[C@H](CO)C(=O)O` [D-Serine, D-serine], the “effect on incorporation of 3H-BMAA into protein” value with MRC-5 cells [10] (3H-BMAA 31.25 nM, 250 μM D-serine) was “did not prevent incorporation”.
In the case of `CNC[C@H](N)C(=O)O` [^3H-BMAA], the tissue distribution pattern entry in [13] was “a distribution pattern similar to that of a protein-forming amino acid”.
